Measured values reported in ChEMBL document CHEMBL1152407, “Identification of inhibitors of checkpoint kinase 1 through template screening” (J Med Chem, 2009).

Key:
[1] = target: Cyclin-dependent kinase 1 (Homo sapiens) (UniProt P06493); test: Inhibition of CDK1 assessed as Rb (ser780) biotinylated peptide phosphorylation at 100 uM by DELFIA assay
[2] = Selectivity ratio of IC50 for CHK2 to IC50 for CHK1
[3] = target: Serine/threonine-protein kinase Chk2 (Homo sapiens, UniProt O96017)
Description: Inhibition of CHK2 assessed as CDC25C peptide phosphorylation by DELFIA assay

[4] = test system: HT-29; test: cells; details: Homo sapiens, HT-29, 96 h
Description: Cytotoxicity against human HT-29 cells after 96 hrs by SRB assay

[5] = target: T1, Serine/threonine-protein kinase Chk1 (Homo sapiens) (UniProt O14757); test: Inhibition of CHK1 at 250 uM by alphascreen assay
T1 sequence (whole entry): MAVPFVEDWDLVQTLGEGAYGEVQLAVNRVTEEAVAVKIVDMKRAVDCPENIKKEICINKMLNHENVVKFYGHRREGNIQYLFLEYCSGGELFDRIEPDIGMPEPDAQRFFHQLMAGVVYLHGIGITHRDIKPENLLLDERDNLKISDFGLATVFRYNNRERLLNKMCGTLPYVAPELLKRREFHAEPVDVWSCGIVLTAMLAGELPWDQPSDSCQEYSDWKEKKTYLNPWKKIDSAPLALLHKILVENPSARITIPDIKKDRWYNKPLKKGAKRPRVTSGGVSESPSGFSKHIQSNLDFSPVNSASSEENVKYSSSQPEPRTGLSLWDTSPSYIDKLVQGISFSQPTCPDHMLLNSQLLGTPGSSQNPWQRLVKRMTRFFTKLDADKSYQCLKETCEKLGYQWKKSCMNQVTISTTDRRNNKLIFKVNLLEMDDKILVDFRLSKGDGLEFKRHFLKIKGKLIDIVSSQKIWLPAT

[6] = target: T1, Serine/threonine-protein kinase Chk1 (Homo sapiens); test: Inhibition of CHK1 at 250 uM by alphascreen assay in presence of 0.01% Triton-X100
[7] = target: T1, Serine/threonine-protein kinase Chk1 (Homo sapiens); test: Inhibition of CHK1 assessed as CDC25C peptide phosphorylation at 100 uM by DELFIA assay
[8] = target: T2, Serine/threonine-protein kinase Chk1 (Homo sapiens, UniProt O14757)
T2 sequence (O14757 whole entry): T1 sequence (whole entry)
Description: Inhibition of CHK1 assessed as CDC25C peptide phosphorylation by DELFIA assay

Chain of Serine/threonine-protein kinase Chk2 (O96017 whole entry): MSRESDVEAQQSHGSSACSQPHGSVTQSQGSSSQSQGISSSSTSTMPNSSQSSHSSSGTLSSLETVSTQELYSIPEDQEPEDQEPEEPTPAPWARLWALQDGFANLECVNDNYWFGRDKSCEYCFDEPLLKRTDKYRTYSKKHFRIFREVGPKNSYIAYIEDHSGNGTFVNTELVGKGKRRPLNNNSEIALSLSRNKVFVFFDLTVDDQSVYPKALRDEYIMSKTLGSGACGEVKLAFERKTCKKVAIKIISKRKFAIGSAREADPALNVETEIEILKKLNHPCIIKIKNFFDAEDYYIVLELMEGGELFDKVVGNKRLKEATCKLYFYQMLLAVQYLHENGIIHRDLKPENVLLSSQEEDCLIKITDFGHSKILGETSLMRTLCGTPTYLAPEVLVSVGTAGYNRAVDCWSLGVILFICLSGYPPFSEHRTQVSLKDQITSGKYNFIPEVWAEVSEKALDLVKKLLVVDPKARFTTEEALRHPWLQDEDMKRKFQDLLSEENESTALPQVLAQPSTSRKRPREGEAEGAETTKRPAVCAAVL
Chain of Cyclin-dependent kinase 1 (Homo sapiens) (P06493 whole entry, looked up): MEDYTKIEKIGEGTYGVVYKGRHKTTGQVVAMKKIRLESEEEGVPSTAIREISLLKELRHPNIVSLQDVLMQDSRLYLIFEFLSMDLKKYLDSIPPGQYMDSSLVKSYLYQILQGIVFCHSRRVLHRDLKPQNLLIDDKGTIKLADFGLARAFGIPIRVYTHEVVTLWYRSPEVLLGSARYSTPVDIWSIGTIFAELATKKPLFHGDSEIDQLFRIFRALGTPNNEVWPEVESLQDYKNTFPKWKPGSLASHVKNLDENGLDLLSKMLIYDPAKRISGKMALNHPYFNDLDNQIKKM

NCC1CN(c2c(Br)cnc3[nH]ncc23)CCO1 (stereo not drawn)
inhibition [1]: 37%
Ratio IC50 [2]: 8
IC50 [3]: 7.4 µM
GI50 [4]: 16 µM

Clc1ccc2c(Nc3ccccc3)ncnc2c1
inhibition [5]: 41.9%
inhibition [6]: 41.5%

CC(C)(C)OC(=O)NCC1CN(c2ncnc3[nH]cnc23)CCO1 (stereo not drawn)
inhibition [7]: 43%

CSC1=N/C(=C\c2cccs2)C(=O)N1
inhibition [5]: 35.7%
inhibition [6]: 33.5%
inhibition [7]: 32%

NCC1CN(c2c(-c3ccsc3)cnc3[nH]ncc23)CCO1 (stereo not drawn)
inhibition [1]: 48%
Ratio IC50 [2]: 8
IC50 [8]: 0.29 µM
IC50 [3]: 4.6 µM
GI50 [4]: 10.5 µM

O=c1[nH]cnc2sc3c(c12)CCCC3
inhibition [5]: 38.5%
inhibition [6]: 45.3%

c1nc(N2CCOCC2)c2nc[nH]c2n1
inhibition [5]: 75.7%
inhibition [6]: 63%

NC[C@@H]1CN(c2c(-c3ccccc3)cnc3[nH]ncc23)CCO1
inhibition [1]: 43%
IC50 [3]: 5.9 µM
GI50 [4]: 40 µM

CCCNc1nc2ccccc2c(=O)[nH]1
inhibition [5]: 40.9%
inhibition [6]: 14.2%
inhibition [7]: 0%

CC(C)(C)Nc1nc(N)c(C(=O)c2ccccc2)s1
inhibition [5]: 36.9%
inhibition [6]: 39.9%
inhibition [7]: 33%

CCOC(=O)c1cnc2[nH]ncc2c1N1CCOC(CN)C1 (stereo not drawn)
inhibition [1]: 3%

O=C(O)C1COCCN1c1ncnc2[nH]cnc12 (stereo not drawn)
inhibition [7]: 12%

Fc1ccc(-c2onc3ccc(-c4cc[nH]n4)cc23)cc1
inhibition [5]: 26.4%
inhibition [6]: 6.5%

O=C(O)CC1CN(c2ncnc3[nH]cnc23)CCO1 (stereo not drawn)
inhibition [7]: 22%

COc1cccc(CNc2ncnc3cc(OC)c(OC)cc23)c1
inhibition [5]: 50.1%
inhibition [6]: 52.8%

CC(=O)Nc1nc2c(s1)C(=O)NCCC2
inhibition [5]: 51.4%
inhibition [6]: 43.1%
inhibition [7]: 27%
